Data as given in patent US9440950B2, “Arginine methyltransferase inhibitors and uses thereof” (Epizyme, Inc., priority 2013, dated 2016).

The molecules below were run against T1, human PRMT3 (Homo sapiens, UniProt O60678) (assay: PRMT3 Biochemical Assay). Settings: peptide substrate, 3H-SAM Flashplate assay.
T1 construct: GST-tagged PRMT3; made in house; host or cells: E. coli BL21(DE3) Gold (pGEX-KG)
T1 sequence (O60678 with tags, fused parts or gaps): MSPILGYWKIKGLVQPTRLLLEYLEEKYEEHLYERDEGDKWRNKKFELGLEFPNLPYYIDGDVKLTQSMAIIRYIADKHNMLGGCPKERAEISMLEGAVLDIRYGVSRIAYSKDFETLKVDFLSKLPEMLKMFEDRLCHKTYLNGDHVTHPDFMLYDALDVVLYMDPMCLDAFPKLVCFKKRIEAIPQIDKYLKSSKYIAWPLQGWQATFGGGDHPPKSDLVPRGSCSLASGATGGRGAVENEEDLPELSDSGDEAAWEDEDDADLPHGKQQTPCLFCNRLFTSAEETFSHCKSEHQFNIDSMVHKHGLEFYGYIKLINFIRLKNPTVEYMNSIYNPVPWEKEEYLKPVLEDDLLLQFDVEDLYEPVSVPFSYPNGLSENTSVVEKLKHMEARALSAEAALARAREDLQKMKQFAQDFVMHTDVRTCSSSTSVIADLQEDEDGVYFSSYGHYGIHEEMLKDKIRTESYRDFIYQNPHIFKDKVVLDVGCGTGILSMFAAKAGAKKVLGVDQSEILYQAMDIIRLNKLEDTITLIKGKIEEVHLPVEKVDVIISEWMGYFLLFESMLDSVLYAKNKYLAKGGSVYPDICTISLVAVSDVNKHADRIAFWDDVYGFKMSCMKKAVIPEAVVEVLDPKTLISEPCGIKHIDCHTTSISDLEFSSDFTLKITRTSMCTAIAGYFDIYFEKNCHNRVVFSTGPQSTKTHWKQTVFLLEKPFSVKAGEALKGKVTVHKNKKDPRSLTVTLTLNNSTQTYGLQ
From the text: S-adenosylmethionine (SAM), S-adenosylhomocysteine (SAH), bicine, Tween20, dimethylsulfoxide (DMSO), bovine skin gelatin (BSG), isopropyl-P3-D-thiogalactopyranoside (IPTG), and Tris(2-carboxyethyl)phosphine hydrochloride solution (TCEP) were purchased from Sigma-Aldrich at the highest level of purity possible. ^3H-SAM was purchase from American Radiolabeled Chemicals with a specific activity of 80 Ci/mmol. 384-well streptavidin Flashplates were purchased from PerkinElmer.
Peptide containing the classic RMT substrate motif was synthesized with an N-terminal linker-affinity tag motif and a C-terminal amide cap by 21st Century Biochemicals. The peptide was purified by high-performance liquid chromatography (HPLC) to greater than 95% purity and confirmed by liquid chromatography mass spectrometry (LC-MS). The sequence was Biot-Ahx-[…]-amide (SEQ ID NO.:11).
Full-length human PRMT3 (NM_005788.3) isoform 1 transcript clone was amplified from an HEK 293 cDNA library and subcloned into pGEX-KG (GE Life Sciences). The resulting construct encodes an N-terminal GST tag and a thrombin cleavage sequence ([…] […] […] […]) (SEQ ID NO.: 12) fused directly to Cys 2 of PRMT3.
E. coli (BL21(DE3) Gold, Stratagene) made competent by the CaCl2 method were transformed with the PRMT3 construct and ampicillin selection. Protein over-expression was accomplished by growing the PRMT3 expressing E. coli clone and inducing expression with 0.3 mM IPTG at 16° C. The culture was grown for 12 hours, harvested by centrifugation, and stored at −80° C. for purification.
GST-tagged PRMT3 eluted with 25-400 mM phosphate in buffer C. Protein was concentrated and buffer was exchanged to 20 mM Tris, 150 mM NaCl, 5% glycerol, 5 mM β-mercaptoethanol, pH7.8 by ultrafiltration. The purity of recovered protein was 70%.
General Procedure for PRMT3 Enzyme Assays on Peptide Substrates.
The assays were all performed in a buffer consisting of 20 mM Bicine (pH=7.6), 1 mM TCEP, 0.005% BSG, and 0.002% Tween 20, prepared on the day of use. Compounds in 100% DMSO (1 ul) were spotted into a polypropylene 384-well V-bottom plates (Greiner) using a Platemate Plus outfitted with a 384-channel head (Thermo Scientific). DMSO (1 ul) was added to Columns 11, 12, 23, 24, rows A-H for the maximum signal control and 1 ul of SAH, a known product and inhibitor of PRMT3, was added to columns 11, 12, 23, 24, rows I-P for the minimum signal control. A cocktail (40 ul) containing the PRMT3 enzyme was added by Multidrop Combi (Thermo-Fisher). The compounds were allowed to incubate with PRMT3 for 30 min at room temperature, then a cocktail (10 ul) containing SAM and peptide was added to initiate the reaction (final volume=51 ul). The final concentrations of the components were as follows: PRMT3 was 0.5 nM, ^3H-SAM was 100 nM, non-radiolabeled SAM was 1.8 uM, peptide was 330 nM, SAH in the minimum signal control wells was 1 mM, and the DMSO concentration was 2%. The assays were stopped by the addition of potassium chloride (10 ul) to a final concentration of 100 mM. 50 ul of the reaction in the 384-well polypropylene plate was then transferred to a 384-well Flashplate and the biotinylated peptides were allowed to bind to the streptavidin surface for at least 1 hour before being washed once with 0.1% Tween20 in a Biotek ELx405 plate washer. The plates were then read in a PerkinElmer TopCount plate reader to measure the quantity of ^3H-labeled peptide bound to the Flashplate surface, measured as disintegrations per minute (dpm) or alternatively, referred to as counts per minute (cpm).
Where dpm=disintegrations per minute, cmpd=signal in assay well, and min and max are the respective minimum and maximum signal controls.
Where top and bottom are the normally allowed to float, but may be fixed at 100 or 0 respectively in a 3-parameter fit. The Hill Coefficient normally allowed to float but may also be fixed at 1 in a 3-parameter fit. […]
For `CNCCN(C)Cc1c[nH]nc1-c1cccnc1` [Compound 1], the IC50 was no less than 10 µM.
`CNCCN(C)Cc1c[nH]nc1-c1ccc(O)nc1` [Compound 2] gave an IC50 of no less than 10 µM.
`CNCCN(C)Cc1c[nH]nc1-c1ccc(N)nc1` [Compound 3] was tested, and the IC50 was no less than 10 µM.
Molecule `CN(CCN)Cc1c[nH]nc1-c1cncc(S(C)(=O)=O)c1` [Compound 4] has an IC50 of no less than 10 µM.
`COc1ccc(-c2n[nH]cc2CN(C)CCN)cn1` [Compound 5] gave an IC50 of no less than 10 µM.
`Cc1cncc(-c2n[nH]cc2CN(C)CCN)c1` [Compound 6] gave an IC50 of no less than 10 µM.
`CN(CCN)Cc1c[nH]nc1-c1cncc(F)c1` [Compound 7] gave an IC50 of 3.01 to 10 µM.
For `CN(CCN)Cc1c[nH]nc1-c1cccnc1` [Compound 8], the IC50 was no less than 10 µM.
Molecule `CN(CCN)Cc1c[nH]nc1-c1ccncc1` [Compound 9] has an IC50 of 1.01 to 3 µM.
`Cc1cc(-c2n[nH]cc2CN(C)CCN)cnc1Cl` [Compound 10] gave an IC50 of 1.01 to 3 µM.
`COc1cc(-c2n[nH]cc2CN(C)CCN)ccn1` [Compound 11] showed an IC50 of no less than 10 µM.
Molecule `COc1cc(-c2n[nH]cc2CN(C)CCN)c(Cl)cn1` [Compound 12] has an IC50 of no less than 10 µM.
Work on `CN(CCN)Cc1c[nH]nc1-c1ccc(C(F)(F)F)nc1` [Compound 13, N^1-methyl-N^1-((3-(6-(trifluoromethyl)pyridin-3-yl)-1H-pyrazol-4-yl)methyl)ethane-1,2-diamine] yielded an IC50 of 3.01 to 10 µM.
With `COc1ncc(Cl)cc1-c1n[nH]cc1CN(C)CCN` [Compound 14] the IC50 was no less than 10 µM.
With `COc1ncccc1-c1n[nH]cc1CN(C)CCN` [Compound 15] the IC50 was no less than 10 µM.
Molecule `COc1ccncc1-c1n[nH]cc1CN(C)CCN` [Compound 16] has an IC50 of no less than 10 µM.
With `Cc1ccncc1-c1n[nH]cc1CN(C)CCN` [Compound 17] the IC50 was no less than 10 µM.
`CN(CCN)Cc1c[nH]nc1-c1cncc(C#N)c1` [Compound 18] was tested, and the IC50 was no less than 10 µM.
For `CN(CCN)Cc1c[nH]nc1-c1cncc(Cl)c1` [Compound 19], the IC50 was 1.01 to 3 µM.
